One experiment concerns A549 cells. Put plainly: Microarray gene expression analysis in A549 cells. In kind it is cell-based, human. The following applies: inhibitor 1 hour before L/I for 6 hours. As to the method: Microarray gene expression analyses have been performed in which A549 cells were incubated without or with LY294002 or wortmannin for 1 hour before the addition of L/I for 6 hours. […] The mRNAs of other kinases that were increased by LY294002 included that encoding CK2α′ (1.8-fold; GenBank accession #M55268). Since CK2 can regulate both G1 and G2/M cell cycle transitions, the effects of LY294002 and LY303511 on CK2 activity were assessed.

The next experiment deals with T1, recombinant CK2 (Homo sapiens, UniProt P68400).
T1 construct: purchased Upstate Biotechnology 17-132 (number of the activity kit, not of the enzyme)
In words: Casein kinase 2 activity kit, 32P incorporation into substrate peptide. Format: biochemical. As to the method:
FIGS. 5A-5B are bar graphs showing that LY303511 inhibits the cell cycle by causing combined G1 and G2/M arrest and that LY303511 inhibits CK2 activity. For the data shown in FIG. 5A, PASM cells were cultured in medium with FBS for 48 hours before the addition of 0-100 μM LY303511 without or with raparnycin, 400 ng/ml, for 24 hours. Cells were then harvested and incubated with propidium iodide for 2 hours before counting using a Becton-Dickson FACSCalibur. Data are the means (±SEM) of percentages of cells in G1, S, or G2/M phase of the cell cycle in three experiments with duplicate assays. *p<0.05 vs. DMSO control, or †p<0.05 vs. 10 μM LY303511, by Student's t—test. FIG. 5B is a bar graph showing that LY303511 or LY294002 inhibits CK2 in vitro. As per the manufacturer (Upstate Biotechnologies), 0 or 100 ng of recombinant CK2 were incubated with CK2 substrate peptide and ^32P-γ-ATP for 10 min with 1% DMSO or inhibitors as indicated. Data are the means of values for samples with inhibitors expressed as percentage of that for control, which was (mean±SEM) 0.2±0.03 pmol phosphate/100 ng protein/10 min. Data are from three experiments performed in duplicate. *p<0.05 by Student's t-test when compared to DMSO control.
One specific assay for casein kinase 2 activity is available commercially as a kit from Upstate Biotechnology (New York). The assay is based on phosphorylation of a specific substrate (CK-2 substrate peptide) using the transfer of the gamma-phosphate of ^32P-ATP by casein kinase 2 during a 10 minute incubation at 30° C. The phosphorylated substrate is then separated from the residual ^32P-ATP using P81 phosphocellulose paper, and quantified by scintillation counting.
Casein kinase 2 (CK2) activity (counts per rninute) was measured using a casein kinase 2 activity kit (Upstate Biotechnology catalogue number 17-132) by incubating recombinant 100 ng CK2, magnesium/ATP cocktail (10 mcCi ^32P-garnma-ATP, 0.675 micromoles MgCl2, 4.5 nmoles ATP), and 10 micromoles peptide substrate (arnino acid sequence RRRDDDSDDD (SEQ ID NO: 1) in 50 mcl assay buffer without or with the indicated concentrations of DMSO (1%), LY294002, LY303511, or rapamycin for 10 minutes at 30° C. Assays were stopped with 20 mcl of 40% trichloroacetic acid, and 25 mcl were spotted on P81 phosphocellulose paper squares before washing 3 times with 0.75% phosphoric acid, and once with acetone. 32P incorporation on the substrate peptide was detected by counting the phosphocellulose squares in 5 ml scintillation fluid using a Packard 100 Tri-Carb liquid scintillation counter.
Measurement of casein kinase 2 (CK2) activity: CK2 activity (counts per minute) was measured using a CK2 activity kit (Upstate, Charlottesville, Va.) by incubating 100 ng of recombinant CK2, rnagnesium/ATP cocktail (10 μCi ^32P-gamma-ATP, 0.675 μmol MgCl2, 4.5 nmol ATP), and 10 μmol peptide substrate (amino acid sequence RRRDDDSDDD) in 50 μl assay buffer (20 mM MOPS, pH 7.2, 5 mM EGTA, 25 mM β-glycerol phosphate, 1 mM sodium orthovanadate, 1 mM dithiothreitol) without or with the indicated concentrations of LY294002, LY303511, wortmannin or rapamycin in 1% DMSO for 10 min at 30° C. Assays were stopped with 20 μl of 40% trichloroacetic acid, and samples (25 μl) of supernatant were applied to P81 phosphocellulose paper squares, which were then washed three times with 0.75% phosphoric acid, and once with acetone. ^32P in the substrate peptide was quantified using a Packard 100 Tri-Carb liquid scintillation counter on phosphocellulose squares in 5 ml of scintillation fluid. Activity is expressed as pmol phosphate incorporated per 10 minutes. CK2 activity measured in the presence of inhibitors was divided by that measured for the DMSO control (=100% control).

The IC50 is the concentration needed to halve the response being measured.

T1 sequence (P68400 whole entry): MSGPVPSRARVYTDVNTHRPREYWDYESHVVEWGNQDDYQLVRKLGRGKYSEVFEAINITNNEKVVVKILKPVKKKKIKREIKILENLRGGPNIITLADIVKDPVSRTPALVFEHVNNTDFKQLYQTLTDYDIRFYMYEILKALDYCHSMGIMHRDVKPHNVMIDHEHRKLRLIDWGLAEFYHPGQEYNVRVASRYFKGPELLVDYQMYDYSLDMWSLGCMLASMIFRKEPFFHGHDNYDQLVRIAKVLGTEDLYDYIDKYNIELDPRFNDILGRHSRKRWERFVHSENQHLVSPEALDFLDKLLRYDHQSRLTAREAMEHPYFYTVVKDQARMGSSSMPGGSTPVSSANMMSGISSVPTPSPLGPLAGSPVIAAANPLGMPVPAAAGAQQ
T1 sequence (P67870 2-215 partner limits assumed): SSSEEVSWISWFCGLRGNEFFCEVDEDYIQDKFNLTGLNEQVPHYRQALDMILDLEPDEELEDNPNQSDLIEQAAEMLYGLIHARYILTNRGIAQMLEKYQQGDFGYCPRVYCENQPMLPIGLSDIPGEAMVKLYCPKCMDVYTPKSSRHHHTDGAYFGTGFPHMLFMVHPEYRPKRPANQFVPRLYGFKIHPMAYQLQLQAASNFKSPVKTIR

Turning to `O=c1cc(N2CCOCC2)oc2c(-c3ccccc3)cccc12` [LY294002, 2-(4-morpholinyl)-8-phenyl-4H-1-benzopyran-4-one, reference compound], in the experiment on A549 cells, the “levels of mTOR mRNA” value is 1.7 fold and the “mRNA encoding CK2α′” value was found to be 1.8 fold. Further, at recombinant CK2 (100 ng recombinant CK2, 10 min at 30° C.), the CK2 activity result is listed as “concentration-dependent inhibition of CK2 activity”. At recombinant CK2 (recombinant CK2 in vitro), the “CK2 IC50 relative to that for LY303511” value is given as “one tenth”. Besides, the IC50 on recombinant CK2 (recombinant CK2 in vitro, read-out: approximate IC50 for CK2) is roughly 10 µM.
